Measured values from publication PMC9206510, “4′-Fluorouridine is an oral antiviral that blocks respiratory syncytial virus and SARS-CoV-2 replication” (Science (New York, N.y.), 2021).
Like-named read-outs stand apart in the source and are kept apart here.

Experiments:
[1] = tested on: COX-I; assay: Quantitative immunocytochemistry on HAE cells, mitochondrial-encoded protein; conditions: read-out: IC50, steady-state level of mitochondrial-encoded COX-I
[2] = tested on: vesicular stomatitis virus (VSV); format: cell-based
[3] = in vitro; conditions: human
[4] = tested on: SARS-CoV-2 WA1 or VoC alpha, gamma, or delta; assay: Ferret model of SARS-CoV-2 infection, oral treatment; format: in vivo
[5] = tested on: human parainfluenza virus type 3 (HPIV3); assay: Dose-response inhibition of recombinant mononegaviruses: HPIV3; format: cell-based
[6] = tested on: SARS-CoV-2 WA1 isolate; assay: Virus yield reduction of SARS-CoV-2 WA1 shed apically from ALI HAE organoids; format: cell-based
Text: To test activity against SARS-CoV-2 in the human airway organoids, we first confirmed that the WA1 isolate replicated efficiently in HAEs of all donors tested (Fig. 5, A to C, and fig. S15).
Fig. 5. Efficacy of 4′-FlU against SARS-CoV-2 replication in HAE organoids. (A) Multicycle growth curve of SARS-CoV-2 WA1 isolate on ALI HAE from two donors. Shed virus was harvested daily and titered by plaque assay (n = 3). (B and C) Confocal microscopy of ALI HAE cells from “F1” donor mock-infected (B) or infected (C) with SARS-CoV-2 WA1 isolate, at 3 days post-infection. SARS-CoV-2 infected cells, goblet cells, and nuclei were stained with anti-SARS-CoV-2 N immunostaining, anti-MUC5AC immunostaining, and Hoechst 34580, pseudo-colored in red, green, and blue, respectively. z-stacks of 35 μm slices (1 μm thick) with 63× objective with oil immersion. […] Rare ciliated cells positive for N are represented in (F).

[7] = tested on: SARS-CoV-2; assay: microbe, parasite or virus in culture; format: cell-based; conditions: Severe acute respiratory syndrome coronavirus 2
[8] = molecular target: RSV RdRP complex (Human respiratory syncytial virus A, UniProt P28887); format: cell-based
[9] = ferret, in vivo, po
[10] = tested on: paramyxovirus RdRP complex; format: cell-based, MeV, HPIV-3
[11] = tested on: RSV (recRSV A2-L19F and clinical RSV isolates); assay: microbe, parasite or virus in culture; format: cell-based; conditions: human respiratory syncytial virus, HEp-2, read-out: half-maximal effective concentrations (EC50 values)
[12] = Single oral dose pharmacokinetics in ferret plasma; conditions: in vivo
[13] = tested on: Sendai virus (SeV); assay: Dose-response inhibition of recombinant mononegaviruses: SeV; format: cell-based
[14] = mouse, in vivo
[15] = tested on: measles virus (MeV); assay: Dose-response inhibition of recombinant mononegaviruses: MeV; format: cell-based
[16] = tested on: SDH-A; assay: Quantitative immunocytochemistry on HAE cells, nuclear-encoded protein; conditions: read-out: IC50, steady-state level of nuclear-encoded SDH-A
[17] = in vitro
[18] = human, 20 μM
[19] = tested on: recRSV-A2-L19F; format: in vivo, BALB/cJ mice
[20] = tested on: rabies virus (RabV); format: cell-based
[21] = molecular target: RdRP activity of Nipah virus (NiV) (Nipah virus, UniProt Q997F0); format: cell-based
[22] = in vitro; conditions: human; remark: listed apart in the source
[23] = tested on: O=c1ccn(C2OC(F)(COP(=O)(O)OP(=O)(O)OP(=O)(O)O)C(O)C2O)c(=O)[nH]1; assay: purified protein, by the assay type; conditions: other: Fig. 2D, Michaelis-Menten model
[24] = WA1, once-daily oral 20 mg/kg from 12 hours after infection, within 12 hours of treatment onset

With O=c1ccn([C@@H]2O[C@](F)(CO)[C@@H](O)[C@H]2O)c(=O)[nH]1 [4′-FlU, 4′-fluorouridine] the IC50 [1] was 147 µM, the active concentrations [2] was “submicromolar” and the CC50 [3] was 169 µM. The “virus burden in nasal lavages” value ([4]; VoC alpha, gamma, delta, 36 to 48 hours after onset of oral treatment) was “below the level of detection”, the “reduction of virus burden in nasal lavages” value [4, 24] was “approximately three orders of magnitude” and the “virus burden in nasal lavages” value [4, 24] was less than 50 PFU/ml. The “time of treatment until shedding of infectious particles ceased completely” value ([4]; all animals, 3 days post-infection) was 2.5 days, the active concentrations [5] was “submicromolar” and the “SARS-CoV-2 nucleocapsid protein in epithelium by confocal microscopy” value ([6]; 50 μM 4′-FlU) was “largely devoid”. For the same compound, the “maximal effect size, reduction of apical virus shedding” value ([6]; 50 μM basolateral 4′-FlU) was “approximately two orders of magnitude”, the EC50 [7] was 0.2 to 0.6 µM and the “RdRP complex activity in minireplicon” value [8] was “inhibited”. For the same compound, the overall exposure ([9]; 15 mg/kg) was 154 ± 27.6 µM·h, the overall exposure ([9]; 50 mg/kg) was 413.1 ± 78.1 µM·h and the “RdRP complex activity in minireplicon” value [10] was “inhibited”. For the same compound, the EC50 [11] was 0.61 to 1.2 µM, the Cmax ([12]; 15 mg/kg) was 34.8 µM and the Cmax ([12]; 50 mg/kg) was 63.3 µM. For the same compound, the active concentrations [13] was “submicromolar”, the “effect on the hematopoietic system (blood analysis)” value [14] was “no antiproliferative effect” and the active concentrations [15] was “submicromolar”. The IC50 [16] was 273 µM, the CC50 [17] was 250 µM and the intracellular level ([18]; 1 h) was 3.42 nmol/million cells. For the same compound, the “bioluminescence intensity in lungs (IVIS)” value ([19]; mouse, in vivo) was “considerable reduction”, the “lung virus burden compared with vehicle-treated animals” value ([19]; mouse, in vivo) was “statistically significant reduction” and the “lung virus load compared with vehicle-treated animals” value ([19]; mouse, in vivo) was “statistically significant reduction”. For the same compound, the “reduction in lung virus load” value ([19]; mouse, in vivo, po, 5 mg/kg) was “nearly two orders of magnitude”, the “therapeutic window (time of treatment start after infection)” value ([19]; requiring reduction of lung virus load of at least one order of magnitude) was 24 h and the “effect of twice-daily dosing regimen on efficacy” value ([19]; versus once-daily oral dosing) was “did not significantly enhance efficacy”. The active concentrations [20] was “submicromolar” and the “RdRP activity in NiV minireplicon reporter assay” value [21] was “efficiently inhibited”.

In the case of O=c1ccn(C2OC(F)(COP(=O)(O)OP(=O)(O)OP(=O)(O)O)C(O)C2O)c(=O)[nH]1 (stereo not drawn) [4′-FlU-TP], the half-life at 20 μM [22] is reported as 9.7 h, the “intracellular concentration at peak” value ([18]; 4 h) is reported as 10.38 nmol/million cells and the “intracellular concentration at plateau” value ([18]; 24 h) is reported as 1.31 nmol/million cells.

In the case of “recombinant RSV RdRP complexes (L and P proteins) (Human respiratory syncytial virus A2)”, the Km [23] is reported as 24.9 µM.
